Source: patent EP4458977A1, “SELF-ASSEMBLING PEPTIDE AMPHIPHILES AS RETROVIRAL TRANSDUCTION ENHANCERS” (Max-Planck-Gesellschaft zur Förderung der Wissenschaften …, priority 2023, dated 2024)
“Also recorded” adds a separate entry of the source. Like-named read-outs stand apart in the source and are kept apart here. Where a SMILES comes first, the peptide text is derived from it. Where no end group is shown, it is not given here. The star is where a group is joined. X2 = CC/C=C\C/C=C\C/C=C\CCCCCCCC(=O)*; Palmitoyl = CCCCCCCCCCCCCCCC(=O)*

How the values were obtained:
[1] = Zeta-potential measurement (dynamic light scattering); type: physicochemical; details: for Zeta Potential / mV: 1 mg/mL, PBS
Protocol: Zeta-potential: 60 µL of the peptides (1 mg mL-1) were diluted in 600 µL, 1 mM KCI solution and placed in a disposable folded capillary cuvette. All zeta-potential measurements were conducted by dynamic light scattering technology (Zetasizer, Malvern Instruments) and in triplicates for each sample. The derived count rate of the zeta potential measurement was used as information on the light scattering intensity and turbidity of the sample as a further indicator for microscopic aggregation.

[2] = TEM of peptide assemblies (fibril formation / assembly); type: physicochemical; details: for TEM morphology (in words): 1 mg/mL in PBS; for Assembly without hydrophob residue: corresponding peptide without hydrophobic moiety; for Assembly: peptide amphiphile
Protocol: The peptides were predissolved in DMSO to a concentration of 10 mg/mL. The fibril formation was induced by further diluting the solution to a final incubation concentration of 650 µM or 1 mg/mL in PBS as indicated in the text and incubated for 1 d (1 day) at rt (room temperature, 20 °C - 25 °C). Other concentrations as described herein were achieved by further dilution of preformed fibrils.
(§1) Transmission electron microscopy (TEM) measurements, Thioflavin (ThT), zeta-potential measurements for fibril characterization were prepared and conducted according to prior art procedures. […] Fibrils were defined as distinct, if no visible structures could be identified in fluorescence and brightfield microscopy.

HIV-1 = details: for Infectivity enhancing N fold at 1.3 µM: relative to virus only; for enhancement of HIV-1 infection / transduction (in words): 6.5 µM, 1.3 µM, 0.26 µM;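 for all read-outs here: TZM-bl reporter cells exposed to HIV-1 with peptide fibrils, infection read out as β-galactosidase luminescence, compared with virus alone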
Protocol: HIV-1 Infection Assay with TZM-bl cells: The effect of peptide fibrils on HIV-1 infection was studied via a luminescence assay for β-galactosidase, which was reported by TZM-bl cells upon infection. The HIV-1 infection assay was conducted in three technical replicates and repeated in three independent experiments unless stated otherwise.

[3] = Zeta-potential measurement (dynamic light scattering); type: physicochemical
[4] = ATR-FT-IR determination of β-sheet content; type: physicochemical; details: for β-sheet amount: 1 mg/mL in PBS lyophilized, integral at 1630 cm^-1 relative to 1650-1700 cm^-1; for β-sheet content / %: peak integration of parallel β-sheet at 1630 cm-1, 2nd derivative of ATR-IR spectra
Protocol: ATR-FT-IR: ATR-IR spectra acquisition and the calculation of β-sheet content were conducted according prior art procedures. Briefly, FT-IR spectra of solid samples were recorded after lyophilization of fibril solutions using a Bruker Tensor II spectrometer equipped with a diamond crystal as ATR element with a spectral resolution of 2 cm^-1, each spectrum was an average of 64 scans. The data was processed with Origin software. β-sheet amount was determined by calculating the integral of the peak at 1630 cm-1 (β-sheet) relative to the integral between 1650-1700 cm-1 (native structure) from the 2nd derivative of the FT-IR spectra.

HeLa cells = experiment: Confocal laser scanning microscopy and degradation study with PA library and HeLa cells; type: cell-based; details: for association with cellular membranes: 2 µg added to 20.000 HeLa cells, 30 min; for degradability (in words) / Degradability / % (rel. to initial particles > 10 µm^2): HeLa cells; for degradability (in words): 3 days; for Degradability / % (rel. to initial particles > 10 µm^2): 3 d relative to 30 min
Protocol: In general, the procedure for determine whether a PA is degraded or not, is conducted by confocal laser scanning microscopy of Proteostat stained PAs which are added to Hela cells (2 µg peptide added to 20.000 cells). Microscopy is conducted at day 0 (d0, after 30 min of incubation) and at day 3 (d3, after 72 h of incubation). The number of aggregates >10 µm^2 is counted via 3D object counter in imaged in an area of 1008 µm × 1008 µm.
A PA is considered to be degradable if the number and the size of aggregates are reduced after 3 days. The efficiency is determined by the percentual degradation (aggregate number at d3 / aggregate number at d0). For the number of aggregation three technical replicates were evaluated for each sample. A large deviation represents a nonhomogeneous spatial distribution of aggregates.
Confocal laser scanning microscopy and degradation study with PA library and HeLa cells: Confocal laser scanning microscopy studies were performed for the visualization of the cell-PA interaction. HeLa cells were seeded one day prior to conducting the assay (20,000/well) in an 8-well IBIDI slide. […] The nucleus of the HeLa cells was stained with Hoechst 33342 (NucBlue™, Thermo Fisher Scientific). The peptide solution mixture was transferred to the HeLa cells and incubated for 30 min at 37°C before washing three times with PBS. […] For the evaluation of aggregate degradation, the samples were further incubated at 37°C for 3 d and analyzed without any additional washing step. […] The number of aggregates were determined by counting aggregates larger than the threshold 10 µm^2 in an area of 1008 × 1008 µm and repeated in three technical triplicates.

[5] = Fluorescence microscopy of ThT-stained fibrils (µm-sized aggregates); type: physicochemical; details: for fluorescent, µm-sized aggregates (ThT staining): 1 mg/mL stained with 50 µM ThT
Protocol: as §1
Fluorescence microscopy: 1 µL Fibrils (1 mg mL^-1) were stained with 9 µL, 50 µM ThT. 10 µL of the stained fibrils (0.1 mg mL^-1) were placed on a microscopy glass. Fluorescence microscopy measurements were performed on a Leica DMi8 microscope with 10x air objective and equipped with a Leica MC170 HD camera with a filter setting λem = 527/30 nm upon excitation at λex = 480/40 nm) and processed with the Leica LASX software.

[6] = Thioflavin T (ThT) fluorescence assay; type: physicochemical; set-up: key to ThT: + = ThT active; - = no ThT fluorescence observed; details: ThT fluorescence; 1 mg/mL, PBS
Protocol: as §1, with “microscopy. A peptide fibril was considered as ThT-active if the fluorescence intensity was at least twice as strong compared to the control (PBS containing 10% DMSO).” for “microscopy.”

Row | Molecule | TEM morphology (in words) [2] | Assembly without hydrophob residue [2] | Assembly [2] | Infectivity enhancing N fold at 1.3 µM (HIV-1) [N fold] | β-sheet amount [4] [%] | association with cellular membranes (HeLa cells) | degradability (in words) (HeLa cells) | enhances infectivity at 1.3 µM concentration, times more efficient compared to virus only infection (HIV-1) [times] | fluorescent, µm-sized aggregates (ThT staining) [5] | enhancement of HIV-1 infection / transduction (in words) (HIV-1) | Zeta Potential / mV [1] | β-sheet content / % [4] [%] | formation of µm-sized aggregates in aqueous medium / PBS (in words) [5] | ThT [6] | further results
1 | CC/C=C\C/C=C\C/C=C\CCCCCCCC(=O)N[C@H](C(=O)N[C@H](C(=O)N[C@H](C(=O)N[C@@H](C)C(=O)N[C@@H](C)C(=O)N[C@@H](C)C(=O)N[C@@H](CCCCN)C(=O)N[C@@H](CCCCN)C(=O)N[C@@H](CCCCN)C(N)=O)C(C)C)C(C)C)C(C)C [Pat9] (X2-VVVAAAKKK-NH2) | failed to form fibrils in aqueous medium | No | No | 1±0 |  |  |  |  |  |  |  |  |  |  | zeta-potential (in words) [1]: almost neutral zeta-potential
2 | CCCCCCCCCCCCCCCC(=O)N[C@H](C(=O)N[C@H](C(=O)N[C@@H](CCC(N)=O)C(=O)N[C@@H](CCCCN)C(=O)N[C@H](C(=O)N[C@@H](CCCCN)C(N)=O)[C@@H](C)CC)[C@@H](C)CC)[C@@H](C)CC [Pat15, C16-IIQKIK-NH2] (Palmitoyl-IIQKIK-NH2) | fibrillar morphologies | No | Yes | 4±1 | 45 | association with cellular membranes | degradable PA | 4 | fluorescent, µm-sized aggregates |  |  |  |  |  | Zeta-Potential / mV [3]: 12.6 mV; Degradability / % (rel. to initial particles > 10 µm^2) (HeLa cells): -28%; Degradability / % (rel. to initial particles > 10 µm^2) (HeLa cells; listed as Pat 15): 28%; aggregate number decreases / degraded in presence of HeLa cells within 3 days (HeLa cells; d3 relative to d0): 28%; Infectivity enhancing N fold at 1.3 µM (HIV-1; listed as Pat 15): 4 N fold
3 | CCCCCCCCCCCCCCCC(=O)N[C@@H](C)C(=O)NCC(=O)NCC(=O)N[C@@H](CCCNC(=N)N)C(=O)N[C@H](C(=O)N[C@@H](CCCCN)C(N)=O)C(C)C [Pat18, C16-AGGRVK-NH2] (Palmitoyl-AGGRVK-NH2) | fibrillar morphologies | No | Yes | 3±1 | 56 |  |  | 3 | no fluorescent, µm-sized aggregates |  |  |  |  |  | Zeta-Potential / mV [3]: 15.9 mV
4 | CCCCCCCCCCCCCCCC(=O)NCC(=O)N[C@@H](CCCCN)C(=O)N[C@H](C(=O)NCC(=O)N[C@@H](CO)C(=O)N[C@@H](CCCCN)C(N)=O)C(C)C [Pat30, C16-GKVGSK-NH2] (Palmitoyl-GKVGSK-NH2) | fibrillar morphologies | No | Yes | 2±1 | 41 | no association with cellular membranes |  |  | less fluorescent, µm-sized aggregates | do not efficiently enhance infectivity |  |  |  |  | infectivity enhancement at 1.3 µM concentration compared to virus only infection (in words) (HIV-1): does not enhance infectivity
5 | CCCCCCCCCCCCCCCC(=O)N[C@@H](CCCCN)C(=O)N[C@H](C(=O)N[C@H](C(=O)N[C@@H](CO)C(=O)N[C@@H](Cc1ccccc1)C(=O)N[C@@H](CCCCN)C(N)=O)[C@@H](C)CC)[C@@H](C)CC [Pat32, C16-KIISFK-NH2] (Palmitoyl-KIISFK-NH2) | fibrillar morphologies | No | Yes | 2±1 | 46 | association with cellular membranes | cannot be degraded; also recorded: not efficiently degradable; also recorded: non-degradable PA |  | fluorescent, µm-sized aggregates |  |  |  |  |  | Degradability / % (rel. to initial particles > 10 µm^2) (HeLa cells): -84%; aggregate number increases (HeLa cells; d3 relative to d0): 84%; infectivity enhancement at 1.3 µM concentration compared to virus only infection (in words) (HIV-1): does not enhances infectivity
6 | C16-disulfide-CVVVAAAKKK-NH2 (not fully specified (residue 1); printed as C16-disulfide-CVVVAAAKKK-NH2) [Pat2] | fibrillar morphologies | No | Yes | 4±2 | 57 | no visible association with cellular membranes |  | 4 | fluorescent, µm-sized aggregates | weak enhancers of HIV-1 infection |  |  |  |  | 
7 | FQFKFKC-NH2 [P2, FQFKFKC-NH2] | Formation of fibrils; also recorded: twisted fibrils |  |  |  |  |  |  |  |  | inactive | +10.1 ± 3.0 mV | 46 | does not form µm-sized aggregates in PBS | - | 
8 | NFYLQVNKINK-NH2 [Pat46] | fibrillar morphologies |  |  |  | 49 | association with cellular membranes | not efficiently degradable; also recorded: non-degradable PA |  | fluorescent, µm-sized aggregates | potent enhancers of HIV-1 infection |  |  |  |  | TEM morphology (in words) ([2]; listed as NFYLQVNKINK): unexpectedly forming fibrils by themselves; aggregate number decreases / degraded in presence of HeLa cells within 3 days (HeLa cells; d3 relative to d0): stays also similar
9 | VVVAAAEEE-NH2 [P3] | amorphous aggregates; also recorded: non-fibrillar amorphous aggregates |  |  |  |  |  |  |  |  |  | -21.2 ± 1.5 mV | 46 | does not form µm-sized aggregates in PBS | - | 
10 | VVVAAAKKK-NH2 [P1] | amorphous aggregates; also recorded: non-fibrillar amorphous aggregates |  |  |  |  |  |  |  |  | inactive | -2.3 ± 0.4 mV | 48 | does not form µm-sized aggregates in PBS | - | 
